Measurements as given in patent publication US8952199B2, “Methods of and formulations for reducing and inhibiting the growth of the concentration of microbes in water-based fluids and systems used with them” (Dow Global Technologies LLC, priority 2007, dated 2015).

How the values were obtained:
Format in all cases: cell-based
[1] = test system: Aerobic bacteria (ATCC bacterial strains, oil/gas field aerobic bacteria, standard marine bacterium); test: Concentration for at least 3 log reduction in 1 hr, aerobic bacteria (one value for ATCC strains, oil/gas field aerobic bacteria and standard marine bacterium); conditions: active, biocide alone
Experimental: (§1) A sterile salt solution (1.2490 g NaCl, 2.9290 g NaHCO3, 0.1910 g Na2CO3, 0.0060 g Na2SO4, 0.033 g CaCl2, and 0.0590 g MgCl2.6H2O in 1 L water) is contaminated with mixed oil/gas field aerobic bacteria at final bacterial concentrations of ˜10^7 CFU/mL. At day zero, either glutaraldehyde (UCARCIDE™ 250, 50% glutaraldehyde in water, The Dow Chemical Company) or THPS (AQUCAR™ THPS 75, 75% THPS in water, The Dow Chemical Company) is added and the solution mixed well to provide a desired final concentration. The solution is then incubated at 37° C. Bacterial populations are monitored over time using a serial dilution method. In experiments running over seven days, samples are reinoculated at day seven.
The testing protocols described in Examples 1 and 2, respectively, are used for oil/gas field aerobic bacteria and anaerobic sulfate reducing bacteria. For the standard bacterial strains Enterobacter aerogenes ATCC 13048, Salmonella choleraesius ATCC 10708, Pseudomonas aeruginosa ATCC 10145, Staphylococcus aureus ATCC 6538, Klebsiella pneumoniae ATCC 8308, Bacillus subtillus ATCC 8473, Escherichia coli ATCC 11229, and Pseudomonas aeruginosa ATCC 39451, separate experiments are performed as described in Example 1, but using a sterile 0.85% NaCl solution instead of the salt solution. For standard marine bacteria Pseudomonas sp. […]

[2] = test system: mixed oil/gas field anaerobic sulfate reducing bacteria; test: Biocidal efficacy against mixed oil/gas field anaerobic sulfate reducing bacteria in deaerated salt solution, serial dilution count; conditions: for Concentration required to achieve at lease 3 log bacterial reduction in 1 hr / Concentration required to achieve at least 3 log reduction of anaerobic sulfate reducing bacteria: active; for Concentration required to achieve at lease 3 log bacterial reduction in 1 hr: biocide alone, anaerobic oil/gas field SRB bacteria; for Concentration required to achieve at least 3 log reduction of anaerobic sulfate reducing bacteria: 37° C.
Experimental: A sterile salt solution as described in Example 1 is deaerated, then contaminated with mixed oil/gas field anaerobic sulfate reducing bacteria at final bacterial concentrations of ˜10^7 CFU/mL. At time=zero, either glutaraldehyde (UCARCIDE™ 250) or THPS (AQUCAR™ THPS 75) is added and the solution mixed well to provide a desired final concentration. The solutions are incubated at 37° C. in an anaerobic environment (Bactron III anaerobic chamber). Bacterial populations are monitored over time using a serial dilution method. In experiments running over seven days, samples are reinoculated at day seven.
The testing protocols described in Examples 1 and 2, respectively, are used for oil/gas field aerobic bacteria and anaerobic sulfate reducing bacteria. For the standard bacterial strains Enterobacter aerogenes ATCC 13048, Salmonella choleraesius ATCC 10708, Pseudomonas aeruginosa ATCC 10145, Staphylococcus aureus ATCC 6538, Klebsiella pneumoniae ATCC 8308, Bacillus subtillus ATCC 8473, Escherichia coli ATCC 11229, and Pseudomonas aeruginosa ATCC 39451, separate experiments are performed as described in Example 1, but using a sterile 0.85% NaCl solution instead of the salt solution. For standard marine bacteria Pseudomonas sp. ATCC 39451, experiments are performed as described in Examples 1 and 2, but at pH 8.0 using artificial sea water (24.6 g NaCl, 0.67 g KCl, 1.36 g CaCl2.2H2O, 6.29 g MgSO4.7H2O, 4.66 g MgCl2.6H2O and 0.18 g NaHCO3 in 1 L water). All data is collected at time=1 hour.

[3] = test system: mixed oil/gas field aerobic bacteria; test: Biocidal efficacy against mixed oil/gas field aerobic bacteria in sterile salt solution, serial dilution count; conditions: for Concentration required to achieve at least 3 log reduction of aerobic bacteria: active, 37° C.
Experimental: as §1, with “seven. […]” for “seven.”

[4] = time interval 8 days, reinoculated at day seven
[5] = time interval 9 days, reinoculated at day seven

Row | Compound | Concentration required to achieve at lease 3 log bacterial reduction in 1 hr [1] [ppm] | Concentration required to achieve at lease 3 log bacterial reduction in 1 hr [2] [ppm] | Concentration required to achieve at least 3 log reduction of anaerobic sulfate reducing bacteria ([2]; time interval 2 hrs) [ppm] | Concentration required to achieve at least 3 log reduction of anaerobic sulfate reducing bacteria ([2]; time interval 4 hrs) [ppm] | Concentration required to achieve at least 3 log reduction of anaerobic sulfate reducing bacteria ([2]; time interval 1 day) [ppm] | Concentration required to achieve at least 3 log reduction of anaerobic sulfate reducing bacteria ([2]; time interval 2 days) [ppm] | Concentration required to achieve at least 3 log reduction of anaerobic sulfate reducing bacteria ([2]; time interval 3 days) [ppm] | Concentration required to achieve at least 3 log reduction of anaerobic sulfate reducing bacteria ([2]; time interval 4 days) [ppm] | Concentration required to achieve at least 3 log reduction of anaerobic sulfate reducing bacteria ([2]; time interval 7 days) [ppm] | Concentration required to achieve at least 3 log reduction of anaerobic sulfate reducing bacteria [2, 4] [ppm] | Concentration required to achieve at least 3 log reduction of anaerobic sulfate reducing bacteria [2, 5] [ppm] | Concentration required to achieve at least 3 log reduction of aerobic bacteria ([3]; time interval 2 hrs) [ppm] | Concentration required to achieve at least 3 log reduction of aerobic bacteria ([3]; time interval 4 hrs) [ppm] | Concentration required to achieve at least 3 log reduction of aerobic bacteria ([3]; time interval 1 day) [ppm] | Concentration required to achieve at least 3 log reduction of aerobic bacteria ([3]; time interval 3 days) [ppm] | Concentration required to achieve at least 3 log reduction of aerobic bacteria ([3]; time interval 4 days) [ppm] | Concentration required to achieve at least 3 log reduction of aerobic bacteria ([3]; time interval 7 days) [ppm] | Concentration required to achieve at least 3 log reduction of aerobic bacteria [3, 4] [ppm] | Concentration required to achieve at least 3 log reduction of aerobic bacteria [3, 5] [ppm] | also measured
1 | O=CCCCC=O [glutaraldehyde] | 44.49 | 29.67 | 12.5 | 12.5 | 12.5 | 12.5 | 25.0 | 25.0 | 25.0 | 25.0 | 50.0 | 25.0 | 25.0 | 6.3 | 6.3 | 6.3 | 12.5 | 25.0 | 25.0 | Speed of action on anaerobic sulfate reducing bacteria, compared in words ([2]; glutaraldehyde versus hydroxymethyl-substituted compounds): more rapid results; Efficacy against aerobic bacteria, compared in words ([3]; glutaraldehyde versus hydroxymethyl-substituted phosphorus compounds): higher efficacy against aerobic bacteria
2 | tetrakis(hydroxymethyl)phosphonium sulfate [THPS] | 44.49 | 44.49 | 50.0 | 25.0 | 25.0 | 12.5 | 6.3 | 6.3 | 6.3 | 12.5 | 25.0 | 25.0 | 25.0 | 12.5 | 12.5 | 25.0 | 25.0 | 100.0 | 100.0 | 
